9 compounds from patent US6191147A, “Pyrazole compounds and uses thereof” (PPD Discovery, Inc., priority 1999, dated 2001) can be followed below.

One experiment concerns the target FPTase (Homo sapiens, UniProt P49354+P49356). Briefly: FPTase inhibition ([3H]FPP transfer to H-Ras). Type of experiment: biochemical. The following applies: 40 μM test compound (unless otherwise indicated). The protocol: (§1) For those assays, the reaction mixtures contained the following components in 50 μl:0.25 μM [^3 H]GGPP (sp. act. 8-10 Ci/mmol), 2.5 μM Ras-CVLL, 50 mM Tris-Cl, pH 7.7, 20 mM KCl, 5 mM MgCl2, 5 μM ZnCl2, 1 mM DTT, 0.5 mM Zwittergent 3-14 and the desired amount of the compound to be tested for inhibitory potential. After pre-equilibrating the assay mixture at 30° C. in the absence of the enzyme, the reaction was initiated by addition of the enzyme (75 ng). Following an about 10 minute incubation at about 30° C., the reactions were terminated by addition of about 0.5 ml of about 4% SDS. About 40 mg of bovine brain membranes was added to the samples to enhance recovery during precipitation. […] Reactions were never allowed to proceed to more than 10% completion based on the limiting substrate. Assays for the inhibition studies of FPTase were performed analogous the GGPTase I inhibition studies, except [^3 H]GGPP was replaced with 0.25 μM of [^3 H]FPP (sp. act. 8-10 ci/mmol) and Ras-CVLL was replaced with 1 μM H-Ras.
(§2) Using the method described above, the GGPTase I and FPTase inhibitory activities of some of the compounds of the present invention were measured. The results of these measurements are provided in Tables I-VI, wherein a value of 100 indicates 100% GGPTase I or FPTase inhibition. Unless otherwise indicated, 40 μM concentration of a test compound is used. The term "alpha" refers to the position of R^1 substituent (e.g., 3,4-dichlorophenyl in Table I) on the nitrogen atom in the pyrazole ring that results in the shortest retention time using the HPLC gradient reported above, where as the term "beta" refers to the position of R^1 substituent (e.g., 3,4-dichlorophenyl in Table I) on the nitrogen atom in the pyrazole ring that results in a longer HPLC retention time than the alphα-regioisomer. Mixtures of regioisomers and/or enantiomers are used unless indicated otherwise using the above alpha and beta notations. The term "N/D" means not determined. In Tables I-VI, R^6 group indicated by *1 refers to {[N"-(1'-oxo-1'-pyrid-3-yl)methyl]-N'-carbamoyl}-3-aminopropyl moiety.

Another experiment deals with T1, GGPTase I (Rattus norvegicus, UniProt P53610+Q04631).
T1 construct: made in house; host or cells: Sf9 insect cells (recombinant baculovirus, co-infection)
Briefly: GGPTase I inhibition ([3H]GGPP transfer to Ras-CVLL). The experiment is classed as biochemical. The settings on record: 40 μM test compound (unless otherwise indicated). The protocol: as §1, §2

For orientation: inhibition means the percentage by which the read-out fell short of the control. Read a low inhibition as little suppression. `CS(=O)(=O)CCC(NC(=O)CCc1cc(-c2cccnc2)n[nH]1)C(N)=O` (centres unmarked) displayed an inhibition at 40 µM against FPTase of 78%. Consider `NC(=O)C(Cc1ccc(O)cc1)NC(=O)CCc1cc(-c2cccnc2)n[nH]1` (centres unmarked), for which testing at 40 µM at GGPTase I gave an inhibition of 24%. With `NC(=O)C(Cc1c[nH]c2ccccc12)NC(=O)CCc1cc(-c2cccnc2)n[nH]1` (centres unmarked), the inhibition at 40 µM against FPTase was found to be 83%; against GGPTase I, 24%. Turning to `NC(=O)C(CCCNC(=O)NC(=O)c1cccnc1)NC(=O)CCCCc1cc(-c2cccnc2)n[nH]1` (centres unmarked) [IX, R^6 = *1, R^1 = HYDROGEN], the inhibition at 40 µM on FPTase is 57%.

Compound `NC(=O)C(Cc1ccccc1)NC(=O)CCCCc1cc(-c2cccnc2)n[nH]1` (centres unmarked) [IX, R^6 = BENZYL, R^1 = HYDROGEN] displayed an inhibition at 40 µM at GGPTase I of 27%. As to `NC(=O)CNC(=O)CCCCc1cc(-c2cccnc2)n[nH]1` [IX, R^6 = HYDROGEN, R^1 = HYDROGEN], testing at 40 µM on FPTase gave an inhibition of 58%. For the compound `CC(C)C(NC(=O)CCCCc1cc(-c2cccnc2)n[nH]1)C(N)=O` (centres unmarked) [IX, R^6 = ISOPROPYL, R^1 = HYDROGEN], the inhibition at 40 µM on FPTase is 78%; against GGPTase I it was 33%. At FPTase, `NC(=O)C(CCCNC(=O)NC(=O)c1cccnc1)NC(=O)CCc1cc(-c2cccnc2)n[nH]1` (centres unmarked) [X, R^6 = *1, R^1 = HYDROGEN] came in with an inhibition at 40 µM of 50%.

Compound `CC(C)C(NC(=O)CCc1cc(-c2cccnc2)n[nH]1)C(N)=O` (centres unmarked) [X, R^6 = ISOPROPYL, R^1 = HYDROGEN] yielded an inhibition at 40 µM against FPTase of 72%.
